In EP0394928A1, “Topical antiviral pharmaceutical composition containing a nonionic surfactant” (SYNTEX (U.S.A.) INC., priority 1989, dated 1990):
Marks after values point to notes of the source that are not given here.

What was measured:
HSV-1 (F strain) [1] = test: Guinea pig model of cutaneous HSV-1 infection, acyclovir creams (Example 9); type: in vivo, female Hartley guinea pigs; settings: 5% ACV in 5% Nonoxynol-9 cream; once a day for 3 days starting 24 hours post-infection; Day 4; treated vs nontreated side
Text: In vivo testing for antiviral activity against cutaneous HSV-1 infections is also done using a guinea pig model, for example, by the procedures described by Hubler, W.R., Jr., Troy, D.F., Troll, D., and Jarratt, M., "Guinea Pig Model For Cutaneous Herpes Simplex Virus Infection", J. Invest. Dermatol., 62:92-95 (1974). This procedure is a modification of a procedure initially described by Hubler, W.R., Jr., et al., "Guinea Pig Model Eor Cutaneous Herpes Simplex Virus Infection", J. Invest. Dermatol., 62:92-95 (1974). The backs of female Hartley guinea pigs were shaved, depilated and inoculated with HSV-1 (F strain) in four different areas by multiple shallow punctures. Two quadrants were on the left side and two on the right side of the dorsum. The animals were divided into 3 treatment groups of 6 animals each. The treatment groups were topically administered a cream on one side of the back once a day for 3 days starting 24 hours post-infection, the other side of back was not treated. The creams contained as an active ingredient either 5% acyclovir in a polyethylene glycol (PEG) based cream (Zovirax ®), 5% acyclovir in a 5% Nonoxynol-9 (N-9) cream or 5% Nonoxynol-9 cream only (placebo control). The numbers of lesions which developed on either the treated or untreated side of the back were counted on Day 4 after infection. […]

[2] = Partition coefficient (octanol / water); type: physicochemical; settings: for logP: ratio of concentrations in nonpolar medium, e.g. octanol, and aqueous medium, e.g. water
Text: The modes of action reported for each compound are likewise distinct. Azone has been reported as a penetration enhancer, i.e., when it is co-administered with another agent, Azone will facilitate the movement of the agent into the cell by increasing lipid fluidity (Lambert, et al., (1989), Pharm Res., 6(9):798-803). The enhancement effect has been reported to be more pronounced with lipophilic agents and with agents with higher partition coefficients. A partition coefficient is the ratio of the concentrations of a given compound in a nonpolar medium, e.g., octanol and in an aqueous medium, e.g., water (ACV and DHPG have partition coefficients of less than 0.1, whereas Ada-DHPG has a partition coefficient of about 2.8 x10⁵).

HSV-1 (F strain) [3] = test: Guinea pig model of cutaneous HSV-1 infection, DHPG versus Ada-DHPG in PG, Azone or Nonoxynol-9 creams (Example 10); type: in vivo, female Hartley guinea pigs; settings: 0.5 ml/animal once a day for 3 days, lesions counted Day 4
Text: (§1) In vivo testing for antiviral activity against cutaneous HSV-1 infections is also done using a guinea pig model, for example, by the procedures described by Hubler, W.R., Jr., Troy, D.F., Troll, D., and Jarratt, M., "Guinea Pig Model For Cutaneous Herpes Simplex Virus Infection", J. Invest. Dermatol., 62:92-95 (1974).
(§2) This procedure is a modification of a procedure initially described by Hubler, W.R., Jr., et al., "Guinea Pig Model For Cutaneous Herpes Simplex Virus Infection", J. Invest. Dermatol., 62:92-95 (1974).
The backs of female Hartley guinea pigs were shaved, depilated and inoculated with HSV-1 (F strain) in four different areas by multiple shallow punctures. Two quadrants were on the left side and two on the right side of the dorsum. The animals were divided into groups and topically administered a cream on one side of the back (0.5 ml/animal) once a day for 3 days starting […] post infection. The other side of the back was not treated. The cream contained either a formulation of 9-(1,3-dihydroxy-2-propoxymethyl)guanine (DHPG) with Azone, Nonoxynol-9 (N-9), or propylene glycol (PG); or 9-[1,3-di(1-adamantylcarboxy)-2-propoxymethyl]guanine (Ada-DHPG) with Azone, Nonoxynol-9 (N-9), or propylene glycol (PG). Placebo groups were treated with only Azone, Nonoxynol-9 (N-9) or propylene glycol (PG). Both DHPG and Ada-DHPG were run in each test with a single formulation. A total of 4 tests were run. In each study, the number of lesions which developed were counted on Day 4 after infection. The treated side versus nontreated side for the various groups were compared by a percent reduction in the number of lesions which developed.

HSV-1 (F strain) [4] = test: Guinea pig model of cutaneous HSV-1 infection, dose response tests in Azone / Nonoxynol-9 creams (Example 8); type: in vivo, female Hartley guinea pigs; settings: once a day 3 days from 24 hours post-infection, Day 4
Text: as §1, §2
The backs of female Hartley guinea pigs were shaved, depilated and inoculated with HSV-1 (F strain) in four different areas by multiple shallow punctures. Two quadrants were on the left side and two on the right side of the dorsum. The guinea pigs were divided into treatment groups of usually 6 each. Treatment was topically administered once a day for 3 days starting 24 hours post-infection on one side of the back. The other side of the back was not treated. Different treatment groups were administered creams which contained 9-[1,3-di(1-adamantyl-carboxy)-2-propoxymethyl]guanine (Ada-DHPG), (10%, 5%, 2.5%, 1% or 0%) with 5% propylene glycol (PG), or 5% propylene glycol (PG); and either Nonoxynol-9 (5% and 2.5%) or Azone (10% and 5%). Additionally, other groups were administered creams containing Ada-DHPG (10%, 5%, 2.5%, 1% or 0%) with no propylene glycol and either 10% Azone or 5% Nonoxynol-9. Seven dose response tests were run in all. In each test the numbers of lesions were counted on Day 4 after infection. The treated side versus the nontreated side for the various groups were compared by a percent reduction in number of lesions which developed.

Nc1nc2c(ncn2COCCO)c(=O)[nH]1 [ACV, 9-(2-hydroxyethoxymethyl)guanine]
Percent Reduction in numbers of lesions (HSV-1 (F strain) [1]): 69* Percent
partition coefficient ([2]; octanol/water): less than 0.1

Nc1nc2c(ncn2COC(COC(=O)C23CC4CC(CC(C4)C2)C3)COC(=O)C23CC4CC(CC(C4)C2)C3)c(=O)[nH]1 (stereo not shown) [Ada-DHPG, 9-[1,3-di(1-adamantylcarboxy)-2-propoxymethyl]guanine]
logP [2]: ~5.45
Percent Reduction in the number of lesions (HSV-1 (F strain) [3]; Test 1: 10% Ada-DHPG in 25% PG cream): 51* Percent
Percent Reduction in the number of lesions (HSV-1 (F strain) [3]; Test 2: 10% Ada-DHPG in 5% PG cream): 42* Percent
Percent Reduction in the number of lesions (HSV-1 (F strain) [3]; Test 3: 10% Ada-DHPG in 10% Azone cream): 76* Percent
Percent Reduction in the number of lesions (HSV-1 (F strain) [3]; Test 4: 10% Ada-DHPG in 5% Nonoxynol-9 cream): 77* Percent
Percent Reduction in number of lesions (HSV-1 (F strain) [4]; Test 1: 1% Ada-DHPG, 5% PG (no surfactant added) cream): 12%
Percent Reduction in number of lesions (HSV-1 (F strain) [4]; Test 1: 2.5% Ada-DHPG, 5% PG (no surfactant added) cream): 16%
Percent Reduction in number of lesions (HSV-1 (F strain) [4]; Test 1: 5% Ada-DHPG, 5% PG (no surfactant added) cream): 3%
Percent Reduction in number of lesions (HSV-1 (F strain) [4]; Test 1: 10% Ada-DHPG, 5% PG (no surfactant added) cream): 37* Percent
Percent Reduction in number of lesions (HSV-1 (F strain) [4]; Test 2: 1% Ada-DHPG, 5% Azone cream (with 5% PG)): -6%
Percent Reduction in number of lesions (HSV-1 (F strain) [4]; Test 2: 2.5% Ada-DHPG, 5% Azone cream (with 5% PG)): 14%
Percent Reduction in number of lesions (HSV-1 (F strain) [4]; Test 2: 5% Ada-DHPG, 5% Azone cream (with 5% PG)): 14%
Percent Reduction in number of lesions (HSV-1 (F strain) [4]; Test 2: 10% Ada-DHPG, 5% Azone cream (with 5% PG)): 29%
Percent Reduction in number of lesions (HSV-1 (F strain) [4]; Test 3: 1% Ada-DHPG, 10% Azone cream (with 5% PG)): 43* Percent
Percent Reduction in number of lesions (HSV-1 (F strain) [4]; Test 3: 2.5% Ada-DHPG, 10% Azone cream (with 5% PG)): 35* Percent
Percent Reduction in number of lesions (HSV-1 (F strain) [4]; Test 3: 5% Ada-DHPG, 10% Azone cream (with 5% PG)): 73* Percent
Percent Reduction in number of lesions (HSV-1 (F strain) [4]; Test 3: 10% Ada-DHPG, 10% Azone cream (with 5% PG)): 78* Percent
Percent Reduction in number of lesions (HSV-1 (F strain) [4]; Test 4: 1% Ada-DHPG, 10% Azone (no PG) cream): 27%
Percent Reduction in number of lesions (HSV-1 (F strain) [4]; Test 4: 2.5% Ada-DHPG, 10% Azone (no PG) cream): 18%
Percent Reduction in number of lesions (HSV-1 (F strain) [4]; Test 4: 5% Ada-DHPG, 10% Azone (no PG) cream): 27%
Percent Reduction in number of lesions (HSV-1 (F strain) [4]; Test 4: 10% Ada-DHPG, 10% Azone (no PG) cream): 47* Percent
Percent Reduction in number of lesions (HSV-1 (F strain) [4]; Test 5: 1% Ada-DHPG, 2.5% Nonoxynol-9 cream (with 5% PG)): 33%
Percent Reduction in number of lesions (HSV-1 (F strain) [4]; Test 5: 2.5% Ada-DHPG, 2.5% Nonoxynol-9 cream (with 5% PG)): 52* Percent
Percent Reduction in number of lesions (HSV-1 (F strain) [4]; Test 5: 5% Ada-DHPG, 2.5% Nonoxynol-9 cream (with 5% PG)): 52* Percent
Percent Reduction in number of lesions (HSV-1 (F strain) [4]; Test 5: 10% Ada-DHPG, 2.5% Nonoxynol-9 cream (with 5% PG)): 64* Percent
Percent Reduction in number of lesions (HSV-1 (F strain) [4]; Test 6: 1% Ada-DHPG, 5% Nonoxynol-9 cream (with 5% PG)): 59* Percent
Percent Reduction in number of lesions (HSV-1 (F strain) [4]; Test 6: 2.5% Ada-DHPG, 5% Nonoxynol-9 cream (with 5% PG)): 65* Percent
Percent Reduction in number of lesions (HSV-1 (F strain) [4]; Test 6: 5% Ada-DHPG, 5% Nonoxynol-9 cream (with 5% PG)): 92* Percent
Percent Reduction in number of lesions (HSV-1 (F strain) [4]; Test 6: 10% Ada-DHPG, 5% Nonoxynol-9 cream (with 5% PG)): 88* Percent
Percent Reduction in number of lesions (HSV-1 (F strain) [4]; Test 7: 1% Ada-DHPG, 5% Nonoxynol-9 (no PG) cream): 57* Percent
Percent Reduction in number of lesions (HSV-1 (F strain) [4]; Test 7: 2.5% Ada-DHPG, 5% Nonoxynol-9 (no PG) cream): 68* Percent
Percent Reduction in number of lesions (HSV-1 (F strain) [4]; Test 7: 5% Ada-DHPG, 5% Nonoxynol-9 (no PG) cream): 90* Percent
Percent Reduction in number of lesions (HSV-1 (F strain) [4]; Test 7: 10% Ada-DHPG, 5% Nonoxynol-9 (no PG) cream): 82* Percent

Nc1nc2c(ncn2COC(CO)CO)c(=O)[nH]1 [DHPG, 9-(1,3-dihydroxy-2-propoxymethyl)guanine, reference compound]
logP [2]: < -1
Percent Reduction in the number of lesions (HSV-1 (F strain) [3]; Test 1: 4.4% DHPG in 25% PG cream): 75* Percent
Percent Reduction in the number of lesions (HSV-1 (F strain) [3]; Test 2: 4.4% DHPG in 5% PG cream): 68* Percent
Percent Reduction in the number of lesions (HSV-1 (F strain) [3]; Test 3: 4.4% DHPG in 10% Azone cream): 100* Percent
Percent Reduction in the number of lesions (HSV-1 (F strain) [3]; Test 4: 4.4% DHPG in 5% Nonoxynol-9 cream): 94* Percent
